Laboratory results published in PubChem BioAssay (NCI).
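Cultured in 96-well plates, cells were exposed to test compound for 48 hours across five concentrations. GI50 marks 50% less growth. The concentration for full growth arrest is given as TGI.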

How the values were obtained:
Assay in all cases: inhibition of tumour cell growth, NCI panel, 48 h
RXF-631 renal = tested on: RXF-631 renal
M19-MEL melanoma = tested on: M19-MEL melanoma
DMS 114 small cell lung = tested on: DMS 114 small cell lung
DLD-1 colon = tested on: DLD-1 colon
SNB-78 CNS = tested on: SNB-78 CNS
LXFL 529 NSCLC = tested on: LXFL 529 NSCLC
XF 498 CNS = tested on: XF 498 CNS
KM20L2 colon = tested on: KM20L2 colon
MDA-N = tested on: MDA-N

SMILES | TGI (RXF-631 renal) [µM] | TGI (M19-MEL melanoma) [µM] | TGI (DMS 114 small cell lung) [µM] | TGI (DLD-1 colon) [µM] | TGI (SNB-78 CNS) [µM] | TGI (LXFL 529 NSCLC) [µM] | TGI (XF 498 CNS) [µM] | TGI (KM20L2 colon) [µM] | other results
O=C(Nc1c(-c2nc3ccccc3[nH]2)sc(=S)n1-c1ccccc1)c1ccccc1 | > 100 | > 100 | > 100 | > 100 | > 100 | > 100 |  |  | 
O=C(CCC(=O)Nc1ccc(Cl)cc1)CC(=O)c1ccc(F)cc1 |  |  |  | > 100 | > 100 | > 100 | > 100 | > 100 | 
CCC[CH2][Sn]([CH2]CCC)([O]C(=O)c1cccc(F)c1)[O]C(=O)c1cccc(F)c1 | 0.486 | 1.93 | 1.63 | 2.32 | 2.27 | 0.664 | 2.04 | 2.91 | GI50 (RXF-631 renal): 0.209 µM; GI50 (M19-MEL melanoma): 0.575 µM; GI50 (DMS 114 small cell lung): 0.376 µM; GI50 (XF 498 CNS): 0.559 µM; GI50 (DLD-1 colon): 1.11 µM; GI50 (SNB-78 CNS): 0.702 µM; GI50 (LXFL 529 NSCLC): 0.228 µM; GI50 (KM20L2 colon): 1.47 µM
Cc1ccc(C)c(NC(=O)c2cc(-c3ccc([N+](=O)[O-])cc3)nc(N)n2)c1 |  | > 100 | > 100 | > 100 |  | > 100 | > 100 | > 100 | 
O=c1cc(Cl)nc[nH]1 | > 100 | > 100 | > 100 | > 100 | > 100 | > 100 |  | > 100 | 
O=Cc1ccc(-c2ccc(-c3ccc(C=O)s3)o2)s1 |  | > 100 | > 100 | > 100 | > 100 | 0.324 |  | > 100 | TGI (MDA-N): > 100 µM
CC(=O)OC1CCn2nnc(COC(=O)NC(C)C)c21 (configuration not stated) | > 100 |  | > 100 | > 100 | > 100 | > 100 | > 100 | > 100 | 
CC(c1ccc(Br)cc1)C(C(=O)O)C(=O)O (configuration not stated) |  | > 100 | > 100 | > 100 | > 100 | > 100 |  | > 100 | 
COc1cc(OC)c2c(=O)c(O)c(-c3ccc(OC)c(OC)c3)oc2c1 |  |  |  |  |  |  |  |  | TGI (MDA-N): > 100 µM
CCCNCc1nc2ccc(Br)cc2c(=O)n1CCC | 19 | 26.1 | 22.9 | 21.7 | 40.6 | 25.1 | 30.9 | 34.3 | 
O=c1/c(=C/c2ccc(Cl)cc2Cl)sc2nc3ccccc3n12 | > 100 | > 100 | > 100 | > 100 | > 100 | > 100 | > 100 | > 100 | 
COc1ccc(C(O)CNC(=O)c2ccccc2)cc1 (configuration not stated) |  |  |  |  |  |  |  |  | TGI (MDA-N): > 100 µM
O=c1c2ccc3cccc4c(=O)cc(c5ccccc15)-c2c34 |  | 54 | > 100 | > 100 |  | > 100 |  | > 100 | 
Cc1ccccc1C(=O)Oc1ccc(Oc2ccccc2)cc1 |  | > 100 | > 100 | > 100 | > 100 | > 100 | > 100 | > 100 | 
Cc1cc(NS(=O)(=O)c2ccc(NC(=O)c3cccc4c(N)c5ccccc5nc34)cc2)no1 | 38.7 | 42.1 | 45.6 | > 100 | 71.1 | > 100 | 55.5 | > 100 | 
CC(C)C(=O)N[C@@H](C)C(=O)N(Cc1ccc2ccccc2c1)N=O |  | > 100 | > 100 | > 100 | > 100 | > 100 | > 100 | > 100 | 
N=C(c1ccccc1)N(O)C1CCCCC1 |  | > 100 | > 100 | > 100 | > 100 | > 100 |  | > 100 | 
C=C1CC(CCCl)(c2ccccc2)OC1=O (configuration not stated) | > 62.8 | > 54.9 | > 63.2 | 42.5 | > 81.8 | 45.4 | > 100 | > 100 | 
CC(C)=CCc1c(O)cc(/C=C/c2cc(O)c3c(c2)C[C@@H]2C(C)(C)[C@H](O)[C@H](O)C[C@@]2(C)O3)cc1O |  |  |  |  |  |  |  |  | GI50 (MDA-N): 1.27 µM; TGI (MDA-N): > 10 µM
O=C1Nc2ccccc2C1Cc1ccccc1 (configuration not stated) |  |  |  |  |  |  |  |  | TGI (MDA-N): > 100 µM
